The record followed here is patent publication US4863899A, “Biologically active polypeptides” (priority 1987, dated 1989).

One experiment concerns anti-KLH-peptide 1 IgG. The experiment can be described thus: Solid phase RIA, 125I anti-KLH-peptide 1 IgG on BSA-peptide 1. The format is binding, rabbit. The procedure:
TGF peptide 1 was coupled to keyhole limpet hemocyanin (KLH) or bovine serum albumin (BSA) by thiol/maleimide linkage (King et al. (1979) J. Immunol. Methods 28, pp. 201-206). Carrier-peptide complexes were purified by gel filtration. An average of 60 moles peptide/mole KLH and 20 moles peptide/mole BSA was achieved. Rabbits were immunized with the KLH-peptide 1 conjugate by multiple subcutaneous (s.c.) and intramuscular (i.m.) injections of 2 mg protein in complete Freund's adjuvant. Rabbits were boosted s.c. every two weeks with the immunogen in incomplete Freund's adjuvant. The IgG fraction of the antiserum after 5 boosts was used for immunoassays and radiolabeled using Na^125 I (NEN) and Enzymobeads (Bio-Rad) to 4×10^5 cpm/μg protein. Polyvinyl chloride 96-well plates (Costar) were coated with 200 μg/mL BSA-peptide 1 conjugate and countercoated with 10% normal rabbit serum in phosphate-buffered saline. Plates were incubated for 4 hours at 37° C. with [^125 I]anti-KLH-peptide 1 IgG (50,000 cpm/well) in the presence or absence of inhibitors, washed and individual wells were counted.

Experiment [1] deals with 125I-labeled rat TGF binding to EGF receptors of A431 cells. The experiment can be described thus: Binding of 125I-labeled rat TGF to A431 cells. The arrangement: species or system human. Here is the method: was synthesized using the solid-phase technique of Ohgak et al. (1983) Journal of Immunol. Meth. 57, pp. 171-184. This oligopeptide was then coupled to keyhole limpet hemocyanin in accordance with the procedure of Baron et al. (1982) Cell 28, pp. 395-404, and used to immunize rabbits (Baron et al. (1982) Cell 28, pp. 395-404) and sheep (Lerner (1982) Nature 299, pp. 592-596). Antisera were assayed against peptide by a peroxidase-linked immunoassay (Kirkegaard and Perry Laboratories, Gaithersberg, Md.) and against homogeneous rat TGF (purified according to Example II above), by immunoprecipitation (Bister et al. (1980) J. Virol. 36, pp. 617-621) and Western blotting techniques (Burnett (1981) Analyt. Biochem. 112, pp. 195-203). Binding of ^125 I-labeled rat TGF and mouse EGF (Bethesda Research Labs, Bethesda, Md.) to A431 cells grown in 96-well microtiter plates was as described in Pross et al. (1977) Proc. Natl. Acad. Sci. U.S.A. 74, pp. 3918-3921.
Human epidermoid carcinoma A431 cells have in excess of 10^6 EGF receptors per cell (Fabricant et al. (1977) Proc. Natl. Acad. Sci. U.S.A. 74, pp. 565-569). TGF competes with EGF for binding to these receptors. Binding of ^125 I-labeled rat TGF to these cells was blocked by an excess of unlabeled EGF and by antiserum to peptide. […]

Experiment [2] has as its system normal rat kidney fibroblasts, clone 49F. The experiment can be described thus: Soft agar growth assay. The format is cell-based. The following applies: tested with up to 10 μg. Here is the method: The assay for colony growth in soft agar, using normal rat kidney fibroblasts, clone 49F, was performed as reported in Todaro et al. (1980) Proc. Natl. Acad. Sci. USA 77, pp. 5258-5262. Lyophilized samples to be tested were reconstituted in 0.5 ml of Dulbecco's modified Eagle's medium, supplemented with 10% calf serum. 1.5 ml of 0.5% (w/v) agar (Difco) in the supplemented medium and 0.5 ml of supplemented medium containing 2.3×10^4 cells were added. 2.3 ml of the resultant mixture were pipetted on a 2-ml base layer (0-5% agar in supplemented medium) in 60-mm Petri dishes (Falcon). The cells were incubated at 37° C. in a humidified 5% CO2 /95% air atmosphere. The assay was read unfixed and unstained at 5 days and at 10-14 days.

The subject of experiment [3] is antiserum against peptide III. The experiment can be described thus: Radioimmunoassay, inhibition of precipitation of 125I-peptide III. Type of experiment: binding, rabbit. The procedure:
Rabbits were immunized by subcutaneous injection of 1 mg of conjugate injected subcutaneously at four separate sites. Two booster injections were administered at bi-weekly intervals following the initial injection. The serum used in this study was collected eighty days after the initial injection. An immunoglobulin fraction of this serum was prepared by ammonium sulfate precipitation. The product of antibodies specific for immunizing peptide was monitored with a solid phase enzyme-linked immunoabsorbent assay.
Reactants were mixed in a final volume of 50 microliters of a solution containing: 20 mM sodium phosphate, at pH 7.4; 200 mM NaCl: 40 mM dithiothreitol; 0.1% (w:v) BSA; 0.1% (w:v) NaN3 : ^125 I-peptide III; (10^4 cpm); antiserum at a final dilution of 1/15,000; and other additions, as specified. The reaction was initiated by the addition of antiserum and continued at 23° C. for 90 minutes. An equal volume of 10% formalin-fixed Staphalococcus A (Pansorbin, Calbiochem) was then added and incubation was continued for an additional 30 minutes at 23° C. The immunoadsorbant was removed by sedimentation through a cushion of 10% (w:v) sucrose and the amount of bound ^125 I-peptide III was determined using a gamma counter. Under these conditions, approximately 25% of ^125 I-peptide was bound by antibody in the absence of competitor. The amount of bound peptide III was corrected for non-specific binding measured in the absence of antibody (less than 5% of the total) and expressed as a percentage of maximal binding. Concentrations of competitors were expressed as the amount of peptide III required to give an equivalent inhibition of precipitation.

The target in another experiment is T1, EGF receptor (Homo sapiens, UniProt P00533).
T1 construct: subconfluent monolayers of formalin-fixed A431 human carcinoma cells; endogenous in cells; host or cells: A431 human carcinoma cells, formalin-fixed
The experiment can be described thus: 125I-EGF radioreceptor assay on formalin-fixed A431 human carcinoma cells. The format is binding. Here is the method:
The fixed cells were washed twice with 0.5 ml of binding buffer (Dulbecco's modified Eagle's medium containing 1 mg/ml of bovine serum albumin and 50 mM 2-[bis(2-hydroxyethyl)amino]ethanesulfonic acid, pH 6.8).
TGF was quantitated in a radioreceptor assay based on receptor cross-reactivity with mouse submaxillary gland epidermal growth factor (mEGF).

The test system of another experiment is normal rat kidney cells. The format is cell-based. As to conditions: on a ng equivalent basis.

“EGF: mouse submaxillary gland epidermal growth factor”: in the experiment with anti-KLH-peptide 1 IgG, the “inhibition of antibody reaction with BSA-TGF peptide” value is “did not cause significant inhibition”. Also, the “binding of 125I-labeled rat TGF to A431 cells” value in experiment [1] is listed as “blocked”. Besides, the “increase in DNA synthesis relative to unstimulated serum deprived cells” value in the experiment with mink fibroblasts was found to be 59%. Moreover, the “stimulation of growth in soft agar” value in experiment [2] is “does not stimulate growth”. Moreover, in experiment [3], the “highest concentration without inhibition of precipitation of 125I-peptide III” value is on record as “greater than 1 μM”. Also, the “Relative Inhibitory Activity” value in experiment [3] (half-maximal inhibitory concentration relative to peptide III, standard RIA, > = highest concentration tested) is reported as above 1500. Also, the “amount required to inhibit EGF binding by 50%” value in the experiment with EGF receptor (0.4 ng 125I-EGF, 1 h at 22° C.) stood at 1.1 ng. Further, the IC50 with EGF receptor (125I-EGF at 0.33 nM (Example XI), read-out: concentration giving half-maximal inhibition of 125I-EGF binding) lay in the range of 0.3 to 0.5 nM. For the same substance, in the experiment on normal rat kidney cells, the “colonies in soft agar” value is given as 120 colonies.
